Measured values from US20250275537A1, “CARBOXAMIDE APYRASE INHIBITORS” (Texas Crop Science, Inc., priority 2024, published 2025).

system: Amaranthus retroflexus (pigweed); experiment: Enhancement of herbicide activity: pre-emergence Amaranthus kill with metribuzin (Method 4); assay type: in vivo; conditions: Assessed 7 DAT, metribuzin rate 50 g/ha; enhancer at 100 g/ha
Source text: Small amounts of acetone were used to aid solubility. The pots were watered immediately after sowing and treatment and then allowed to stand in a glasshouse. Assessment of kill was made seven and fourteen days after treatment. The test included four replicates for each treatment and the control.

Row | Structure (SMILES) | Pre-Emergence Amaranthus Kill Percentage [%]
1 | CSc1nnc(C(C)(C)C)c(=O)n1N [metribuzin, reference compound] | 0.0

system: apyrase; experiment: Apyrase inhibition assay (Method 1); assay type: biochemical; conditions: inhibitor conc at 1 mM stock, 10 μl per well; 1 hr room temperature; rounded average of at least two assay results
Protocol: Apyrase inhibitors useful as enhancers of pesticidal activity are assessed using an in vitro assay. The method of Windsor, Bio Techniques 33:1024-1030 (November 2002) was used as follows
96 well plates were used for the assay: (Greiner bio-one: REF-655901-96 well, PS, F-bottom, Clear, Non-binding)
• Reaction Buffer: 60 mM Hepes, 3 mM MgCl2, 3 mM CaCl2 and 3 mM ATP (pH 6.5) • Development Buffer A: 2% aqueous ammonium molybdate • Development Buffer B: 11% ascorbic acid in 37.5% TCA in water • Stop buffer C: 2% trisodium citrate in 2% acetic acid solution in water • Add 100 μl of reaction buffer to each well. • Add 10 μl of DMSO (control) or inhibitor/compound or compounds such as N1915 or orthovanadate to each well. (use inhibitor conc at 1 mM; orthovanadate at 2 mM and N1915 at 1 mM) • Add 10 μl of apyrase (concentration based on optimization —Dilute 1 U/μl enzyme to different concentrations such as 0.1U, 0.05U, 0.0025, 0.001U, 0.0005U—to find a good range) • Incubate plate at room temperature for 1 hr • Mix development buffer A and B in the ratio of 1:1.5 (just before use). • Add 50 ul of A:B mix in each well (incubate for 2 mins) • Add 50 ul of C in each well • Measure/Read Absorbance of plate @630 nm
Inhibitory data for the apyrase assay described above are provided for selected compounds in Table 3. In Table 3, D indicates inhibition of <10%.
With reference to Table 3, percent inhibition of apyrase is reported as the rounded average of at least two assay results.

Row | Structure (SMILES) | % Inhibition of Apyrase
2 | O=C(Nc1ccccc1)c1ccc(C(=O)Nc2cnn(CC3CCCO3)c2)cc1 (centres unmarked) [Compound I-61, N^1-phenyl-N^4-(1-((tetrahydrofuran-2-yl)methyl)-1H-pyrazol-4-yl)terephthalamide] | D (D indicates inhibition of <10%)
3 | C#Cc1cccc(NC(=O)c2ccccc2C(=O)N2CCN(C)CC2)c1 [Compound I-58, N-(3-ethynylphenyl)-2-(4-methylpiperazine-1-carbonyl)benzamide] | D (D indicates inhibition of <10%)
4 | O=C(Nc1ccc2c(c1)OCO2)c1ccc(C(=O)Nc2ccc3c(c2)OCO3)cc1 [Compound I-5, N^1,N^4-bis(benzo[d][1,3]dioxol-5-yl)terephthalamide] | A (A indicates inhibition above 30%)
5 | O=C(Nc1ccccc1)c1cccc(C(=O)Nc2[nH]ncc2-c2ccc3c(c2)OCO3)c1 [Compound I-16, N1-(4-(benzo[d][1,3]dioxol-5-yl)-1H-pyrazol-5-yl)-N3-phenylisophthalamide] | B (B indicates inhibition of from 20% to 30%)
6 | CC(C)Cn1c(=O)c2ccccc2c(=O)n1C [Compound I-15, 2-isobutyl-3-methyl-2,3-dihydrophthalazine-1,4-dione] | B (B indicates inhibition of from 20% to 30%)
7 | CN(C(=O)c1ccccc1C(=O)Nc1cccc(C(F)(F)F)c1)C1CCCCC1 [Compound I-43, N^1-cyclohexyl-N^1-methyl-N^2-(3-(trifluoromethyl)phenyl)phthalamide] | D (D indicates inhibition of <10%)
8 | O=C(Nc1ccc2scnc2c1)c1ccc(C(=O)NC2CC2)cc1 [Compound I-41, N^1-(benzo[d]thiazol-5-yl)-N^4-cyclopropylterephthalamide] | D (D indicates inhibition of <10%)
9 | Cc1cccc(CNC(=O)c2ccc(C(=O)Nc3cccc(-n4ccnn4)c3)cc2)c1 [Compound I-9, N^1-(3-(1H-1,2,3-triazol-1-yl)phenyl)-N^4-(3-methylbenzyl)terephthalamide] | A (A indicates inhibition above 30%)
10 | COC(C)(C)CNC(=O)c1ccc(C(=O)Nc2ccccc2)cc1 [Compound I-28, N^1-(2-methoxy-2-methylpropyl)-N^4-phenylterephthalamide] | C (C indicates inhibition of from 10% to 20%)
11 | O=C(Nc1ccccc1)c1ccc(C(=O)Nc2cc3n(n2)CCC3)cc1 [Compound I-34, N^1-(5,6-dihydro-4H-pyrrolo[1,2-b]pyrazol-2-yl)-N^4-phenylterephthalamide] | C (C indicates inhibition of from 10% to 20%)
12 | CN(C(=O)c1ccccc1C(=O)Nc1ccc2c(c1)OCO2)C1CCCCC1 [Compound I-18, N^1-(benzo[d][1,3]dioxol-5-yl)-N^2-cyclohexyl-N^2-methylphthalamide] | B (B indicates inhibition of from 20% to 30%)
13 | CN(C(=O)c1cccc(C(=O)Nc2cc(Br)ccc2F)c1)c1ccccc1 [Compound I-65, N^1-(5-bromo-2-fluorophenyl)-N3-methyl-N^3-phenylisophthalamide] | D (D indicates inhibition of <10%)
14 | O=C(Nc1ccccc1)c1cccc(C(=O)Nc2cccc(-c3nnn[nH]3)c2)c1 [Compound I-29, N^1-(3-(1H-tetrazol-5-yl)phenyl)-N^3-phenylisophthalamide] | C (C indicates inhibition of from 10% to 20%)
15 | O=C(NCc1ncc[nH]1)c1ccc(C(=O)Nc2ccccc2)cc1 [Compound I-48, N^1-((1H-imidazol-2-yl)methyl)-N^4-phenylterephthalamide] | D (D indicates inhibition of <10%)
16 | CN(C)C(=O)c1ccccc1C(=O)Nc1ccc2c(c1)OCCCO2 [Compound I-12, N^1-(3,4-dihydro-2H-benzo[b][1,4]dioxepin-7-yl)-N^2,N^2-dimethylphthalamide] | B (B indicates inhibition of from 20% to 30%)
17 | COc1ccc(C)cc1NC(=O)c1ccccc1C(=O)N(C)C1CCCCC1 [Compound I-8, N^1-cyclohexyl-N^2-(2-methoxy-5-methylphenyl)-N^1-methylphthalamide] | A (A indicates inhibition above 30%)
18 | O=C(Nc1ccccc1)c1cccc(C(=O)Nc2cc3c(cc2Cl)OCO3)c1 [Compound I-4, N^1-(6-chlorobenzo[d][1,3]dioxol-5-yl)-N3-phenylisophthalamide] | A (A indicates inhibition above 30%)
19 | Cc1cc(C)c(NC(=O)c2ccc(C(=O)Nc3c(C)cc(C)cc3C)cc2)c(C)c1 [Compound I-51, N^1,N^4-dimesitylterephthalamide] | D (D indicates inhibition of <10%)
20 | Cn1c(=O)c2ccccc2c(=O)n1Cc1nnc(C2CC2)o1 [Compound I-59, 2-((5-cyclopropyl-1,3,4-oxadiazol-2-yl)methyl)-3-methyl-2,3-dihydrophthalazine-1,4-dione] | D (D indicates inhibition of <10%)
21 | CC(NC(=O)c1cccc(C(=O)Nc2ccccc2)c1)C(=O)N1CCS(=O)(=O)CC1 (centres unmarked) [Compound I-32, N^1-(1-(1,1-dioxidothiomorpholino)-1-oxopropan-2-yl)-N^3-phenylisophthalamide] | C (C indicates inhibition of from 10% to 20%)
22 | Cc1ccc(NC(=O)c2ccc(C(=O)Nc3ccc(C)cc3)cc2)cc1 [Compound I-1, N^1,N^4-di-p-tolylterephthalamide] | A (A indicates inhibition above 30%)
23 | CCCNC(=O)c1cccc(C(=O)Nc2cccc3cn[nH]c23)c1 [Compound I-57, N^1-(1H-indazol-7-yl)-N^3-propylisophthalamide] | D (D indicates inhibition of <10%)
24 | Nc1ccc(N2C(=O)c3ccccc3C2=O)c(Cl)c1 [Compound I-25, 2-(4-amino-2-chlorophenyl)isoindoline-1,3-dione] | C (C indicates inhibition of from 10% to 20%)
25 | CSc1cccc(NC(=O)c2ccc(C(=O)Nc3cccc(SC)c3)cc2)c1 [Compound I-2, N^1,N^4-bis(3-(methylthio)phenyl)terephthalamide] | A (A indicates inhibition above 30%)
26 | O=C(Nc1ccc(N2CCCC2=O)cc1)c1ccc(C(=O)Nc2ccc(N3CCCC3=O)cc2)cc1 [Compound I-46, N^1,N^4-bis(4-(2-oxopyrrolidin-1-yl)phenyl)terephthalamide] | D (D indicates inhibition of <10%)
27 | COCC#CCn1c(=O)c2ccccc2c(=O)n1C [Compound I-31, 2-(4-methoxybut-2-yn-1-yl)-3-methyl-2,3-dihydrophthalazine-1,4-dione] | C (C indicates inhibition of from 10% to 20%)
28 | O=C(NCc1ccccc1)c1ccccc1C(=O)NCc1ccccc1 [Compound I-30, N^1,N^2-dibenzylphthalamide] | C (C indicates inhibition of from 10% to 20%)
29 | O=C(Nc1cccc([N+](=O)[O-])c1)c1ccccc1C(=O)N1CCCC1 [Compound I-33, N-(3-nitrophenyl)-2-(pyrrolidine-1-carbonyl)benzamide] | C (C indicates inhibition of from 10% to 20%)
